Assays:
[1] = test system: cytoplasmic oxidative stress in HUVEC; test: LPS-induced cellular superoxide in HUVEC (DHE); assay type: cell-based, Human; conditions: 10 μM for 30 min, LPS 100 ng/ml 24 hours
Description: (§1) Human Umbilical Cord Endothelial Cells (HUVEC, Lonza CC-2519) were maintained on 1% gelatin-coated culture flasks in RPMI1640 medium containing 20% fetal bovine serum, 2 mM Glutamine (Sigma-Aldrich), 1% Penicillin-Streptomycin solution (Sigma-Aldrich) and 50 μg/ml Bovine Pituitary Extract (Invitrogen). HUVEC were passaged by trypsinization when the cultures reach a confluency of 70%. For all experiments, HUVEC were seeded at 0.6·10^5 cells/cm^2 and allowed to adhere for 24 hours.
The production of cellular and mitochondrial oxidative stress was measured using fluorescent probes for cellular and mitochondrial superoxide, i.e. dihydroethidium (DHE) and MitoSox (ThermoFisher), respectively. HUVEC were incubated with BN-80933, SUL-138 or SUL-150 (all 10 μM) for 30 min. Next, HUVEC were exposed to LPS (100 ng/ml) for an additional 24 hours. In the final hour of incubation, 2.5 μM of DHE or MitoSox was applied to each sample. HUVEC were washed in PBS and fixed in 4% paraformaldehyde at room temperature for 15 min. Nuclear staining was performed by 5 μM […] (DAPI) and fluorescence intensity of the samples was recorded in a CLARIOStar Plus plate reader (BMG Labtech) equipped with the appropriate filter sets. Fluorescence recordings for DHE and MitoSox were corrected for DAPI fluorescence. All experiments were performed in quadruplicate.

[2] = test system: IL-6 mRNA expression; test: Endothelial inflammatory activation after endotoxin, IL-6 mRNA (Example 5); assay type: cell-based, Human; conditions: HUVEC; 10 μM for 30 min
Description: as §1
(§2) HUVEC cells were lysed in triZOL reagens (Invitrogen) and total RNA isolated according to manufacturers' instruction. 1 μg total RNA per sample was reverse transcribed using the FirstAid Reverse Transcription Kit (ThermoFisher). Copy-DNA equivalents of 5 ng total RNA were amplified on a ViiA7 Real-time PCR system (ThermoFisher, Waltham, Mass.) using iTaq Universal SYBR Green Supermix (Bio-Rad, Hercules, Calif.) and primers specific for tumor necrosis factor alpha (TNFα; sense 5′-[…]-3′, antisense 5′-[…]-3′), interleukin 1 beta (IL-1β; sense 5′-[…]-3′, antisense 5′-[…]-3′), interleukin-6 (IL-6; sense 5′-[…]-3′, antisense 5′-[…]-3′) and beta actin (ACTB; sense 5′-[…]-3′, antisense 5′-[…]-3′) as loading control. Amplification was performed for 40 cycles of 95° C. for 30 s, 60° C. for 1 min. Relative mRNA expression was calculated according to the δδCt-method.

[3] = test system: IL-1β mRNA expression; test: Inhibition of LPS-induced IL-1β mRNA expression in NRK52E; assay type: cell-based, Rat; conditions: 10 μM for 30 min, then LPS 24 hours
Description: (§3) Rat kidney epithelial cells (ATCC #CRL-1571) were maintained in DMEM medium containing 10% fetal bovine serum, and 1% Penicillin-Streptomycin solution (Sigma-Aldrich). NRK52E cells were passaged by trypsinization when the cultures reached a confluency of 70%. For all experiments, NRK52E cells were seeded at 0.6·10^5 cells/cm^2 and allowed to adhere for 24 hours.
(§4) HUVEC and NRK52E cells were pre-incubated with SUL compounds (10 μM) for 30 min and subsequently exposed to LPS for 24 hours under standard culture conditions. Cells were lysed in triZOL reagens (Invitrogen) and total RNA isolated according to manufacturers' instruction. 1 μg total RNA per sample was reverse transcribed using the FirstAid Reverse Transcription Kit (ThermoFisher). Copy-DNA equivalents of 5 ng total RNA were amplified on a ViiA7 Real-time PCR system (ThermoFisher, Waltham, Mass.) using iTaq Universal SYBR Green Supermix (Bio-Rad, Hercules, Calif.) and primers specific for tumor necrosis factor alpha, interleukin 1 beta, interleukin-6 and beta actin as loading control. Amplification was performed for 40 cycles of 95° C. for 30 s, 60° C. for 1 min. Relative mRNA expression was calculated as 2^−(Cq^gene^−Cq^reference^) and normalized to unstimulated control cells (100% inhibition) and vehicle-treated and LPS exposed cells (0% inhibition). The following primers were used: […]

[4] = test system: IL-6 mRNA expression; test: Inhibition of LPS-induced IL-6 mRNA expression in NRK52E; assay type: cell-based, Rat; conditions: 10 μM for 30 min, then LPS 24 hours
Description: as §3, §4

[5] = test system: HUVEC; test: LPS-challenged HUVEC respiration (uncoupled state, CCCP); assay type: cell-based, Human; conditions: 10 ug/ml LPS, SUL-138 added one hour prior to LPS
Description: (§5) Human Umbilical Vein Endothelial cells (HUVEC) were obtained from the RuG/UMCG Endothelial Cell Facility. Primary isolates of umbilical cords were mixed and subsequently cultured on HUVEC culture medium, consisted of RPMI 1640 (Lonza, art.nr. BE12-115F) supplemented with 20% heat-inactivated fetal calf serum (ThermoFisher Scientific, art.nr. 10082147), 2 mM 1-glutamine (Life Technologies art.nr. 25030), 5 U/ml heparin (Leo Pharmaceutical Products), 1% Penicillin/Streptomycin (Sigma-Aldrich art.nr. P4333), and 50 μg/ml EC growth factor supplement from (Sigma-Aldrich, art.nr. E2759).
(§6) Primary HUVECs were cultured in 75-cm2 tissue culture flasks (Corning, art.nr. 430720U) at 37° C. under 5% CO2/95% air. HUVECs were used for experiments up to passage 8. Experiments were performed in 6-well (Corning art.nr. 3506) or 96-well culture plates (Corning, art.nr. 3596), at 80% confluency. Cells were stimulated with LPS E. coli 0111:B4 (Sigma-Aldrich, art.nr. L2630) in different concentrations. Cells were detached with trypsin (Sigma-Aldrich, art.nr. 25300054). All compounds were dissolved in Hanks Balanced Salt Solution (Lonza, art.nr. 10-527F).
(§7) HUVECs were pre-incubated with SUL-138 in an amount of 10 microgram/ml, which was added one hour prior to LPS-stimulation. Such pre-incubation is the standard in in vitro models.

[6] = test system: TNFα mRNA expression; test: Endothelial inflammatory activation after endotoxin, TNFα mRNA (Example 5); assay type: cell-based, Human; conditions: HUVEC; 10 μM for 30 min
Description: as §1, §2

[7] = test system: TNFα mRNA expression; test: Inhibition of LPS-induced TNFα mRNA expression in HUVEC; assay type: cell-based, Human; conditions: 10 μM for 30 min, then LPS 24 hours
Description: as §1, §4

[8] = test system: TNFα mRNA expression; test: Inhibition of LPS-induced TNFα mRNA expression in NRK52E; assay type: cell-based, Rat; conditions: 10 μM for 30 min, then LPS 24 hours
Description: as §3, §4

[9] = test system: HUVEC; test: HUVEC cell survival after 48 hours LPS (Cyquant); assay type: cell-based, Human; conditions: 48 hours with LPS, SUL-138 pre-incubation
Description: as §5, §6, §7

Cc1c(C)c2c(c(C)c1O)CC[C@@](C)(C(=O)N1CCN(CCO)CC1)O2 [SUL-138, (S)-(6-hydroxy-2,5,7,8-tetramethylchroman-2-yl)(4-(2-hydroxyethyl)piperazin-1-yl)methanone]
LPS-induced cytoplasmic oxidative stress (DHE) [1]: mitigates the induction of cytoplasmic oxidative stress
LPS-induced mRNA expression of IL-6 [2]: precluded the LPS-induced increase in IL-1β and IL-6
inhibition of LPS-induced mRNA expression of IL-1β [3]: 65.2 ± 8.9 %
inhibition of LPS-induced mRNA expression of IL-6 [4]: 65.3 ± 7.6 %
uncoupled respiration (CCCP) [5]: almost restores the uncoupled respiration
LPS-induced mRNA expression of TNFα [6]: precludes the induction of mRNA expression of the pro-inflammatory cytokine TNFα
inhibition of LPS-induced mRNA expression of TNFα [7]: 81.4 ± 4.5 %
inhibition of LPS-induced mRNA expression of TNFα [8]: 52.6 ± 11.6 %
cell survival (Cyquant) [9]: restores cell survival after 48 hours
